Test results from patent publication US10874727B2, “Inducible regulatory t-cell generation for hematopoietic transplants” (The Trustees of the University of Pennsylvania, priority 2008, dated 2020).
“Also recorded” adds a separate entry of the source.

What was measured:
CD4+25− T cells = experiment: iTreg generation from CD4+25− T cells cultured with allogeneic TLR9 activated pDCs; type: cell-based, human; details: IDO inhibition by 1MT in pDC cultures
Text: (§1) CD4^+25^− T cells, when cultured with allogeneic TLR9 activated allogeneic plasmacytoid dendritic cells (pDCs), but not B-cells, lead to the generation of iTregs, CD4^+25^+FoxP3^+ suppressor cells (FIG. 2). It was also observed that iTregs (closed), but not T cells primed to TLR activated B cells (open squares), were potently suppressive of a naïve MLR culture (x-axis are x 104; MLR used 105 naïve T cells; FIG. 3). […] Since IDO catabolizes tryptophan into kynurenines (KYN), it is believed that iTregs can be generated in B cell cultures using KYN.

naïve MLR culture = experiment: MLR suppression by iTregs generated in B cell cultures using KYN; type: cell-based, human; details: KYN added to allogeneic B cell cultures (50 μM elsewhere in the source); not blocked by 1MT
Text: as §1
It has been shown that CD4^+25^− T-cells exposed to allogeneic TLR9 activated plasmacytoid dendritic cells (pDCs), but not B-cells, leads to the generation of iTregs (Moseman et al., 2004, J Immunol 173:4433-42), CD4^+25^+FoxP3^+ suppressor cells, a process dependent upon the enzyme indoleamine 2,3-dioxygenase (IDO) that catabolizes tryptophan. […] Because obtaining high numbers of non-malignant B-cells or pDCs from leukemia/lymphoma patients would be difficult, low trypt/KYN conditions in an artificial antigen-presenting cell expansion system was examined. In considering strategies for iTreg generation, experiments were designed to focus on molecular features preferentially associated with nTregs vs naïve or T effector cells. […]

CD4+25+ Tregs = experiment: Expansion of CD4+25+ Tregs with anti-CD3/28 microbeads or KT64/86 cells plus IL-2, with or without rapa; type: cell-based, human
Text: (§2) Adding rapa, which is an mTOR inhibitor, (labeled as +) reduced mean expansion rates by 30-fold with beads resulting in ≤10-fold mean expansion rates by day 14.

CD4+25−45RA+ cells = experiment: Foxp3 expression at day 14 after Decitibine ± TGFβ induction and re-stimulation with anti-CD3 loaded KT64/86; type: cell-based, human; details: for Foxp3 expression: Decitibine 5 μM day 7 ± TGFβ 10 ng/ml day 0, re-stimulated day 7
Description: The next set of experiments was designed to determine whether re-stimulation of iTreg increases the percentage of Foxp3++ cells. nTreg (CD4^+25^++) and CD4^+25^−45 RA^+ cells were purified from peripheral blood (PB) using magnetic beads and the cells were stimulated with anti-CD3 loaded KT64/86 cells (K562 cells modified to express an Fc receptor CD64 and CD86). nTreg were cultured in the presence of IL-2 (300 U/ml) and Rapamycin (109 nM) while CD4^+25^− cells were cultured with IL-2 alone, or were induced to become Treg by the addition of Decitibine (5 μM at day 7) and Rapamycin (109 nM at day 7). Portions of the CD4^+25^−45 RA^+ and Decitibine iTreg cultures were also re-stimulated on day 7 with anti-CD3 loaded KT64/86 cells. After a total of 14 days, cells were harvested and the expression of CD4, CD25, and Foxp3 was measured using flow cytometry. FIG. 6 summarizes the results in the context of percentage of CD4+ gated cells expressing low (Foxp3+) or high (Foxp3++) levels of Foxp3.
The next set of experiments was designed to determine whether TGFβ could synergize the effects of Decitibine to induce Foxp3 expression in the cells. Briefly, nTreg (CD4^+25^++) and CD4^+25^−45 RA^+ cells were purified from peripheral blood using magnetic beads and stimulated with anti-CD3 loaded KT64/86 cells. nTreg were cultured in the presence of IL-2 (300 U/ml) and Rapamycin (109 nM) while CD4^+25^− cells were cultured with IL-2 alone, or were induced to become Treg by the addition of Decitibine (5 μM at day 7) in the presence or absence of TGFβ (10 ng/ml, day 0). All samples were re-stimulated on day 7 with anti-CD3 loaded KT64/86 cells. After a total of 14 days, cells were harvested and expression of CD4, CD25, and Foxp3 was measured using flow cytometry.

CD4+25−45RA+ T cells [1] = experiment: iTreg generation: FoxP3 flow phenotype of cultured CD4+25−45RA+ T cells at day 10; type: cell-based, human; details: for iTreg generation / induction of CD4+127loFoxP3hi cells by day 10: single agents: rapa, TGFb 10 ng/ml, SAHA 300 nM, TSA 100 nM
Description: (§3) For initial studies, to ensure inducible Treg (iTreg) conversion was being examined and not natural Treg (nTreg) expansion, CD4^+25^−45 RA^+ T cells are isolated from ficolled buffy coat cells by negative selection (CD8, CD11b, CD16, CD19, CD36, CD56 CD25) followed by CD45RA positive selection using beads. Cells are cultured in X-Vivo-15 or trypt-free media, as indicated, along with human ABneg serum (10%) and L-glutamine. rIL-2 (300 U/ml: Chiron) is added on day 2 and with re-feeds.
In order to assay for the presence of non-Tregs and nTregs, multi-color phenotyping can be employed pre- and post-isolation and on days 7, 10, 14, 21 for both non-Tregs and nTregs (CD4/25/127lo/FoxP3) for co-expression of adhesion molecules (e.g., CD62L; LFA-1), chemokine receptors (e.g., CCR4-9; CXCR3), and cytokines (IL2, IL17, TNFa, IL10). Phosphorylated-Stat5 and p-Akt can be analyzed at 15′ post-stimulation with PMA/ionomycin.
(§4) To simulate IDO effects, cells were cultured in low tryp+KYN using KYN at 10 μM+trypt at 1 μM until day 7 then 5 μM trypt beyond day 7 to support expansion after iTreg “imprinting” has occurred. Decitibine was added at 1-5 μM (final) to day 3 cultures. Cultures were expanded with anti-CD3/28 mAb-loaded, irradiated KT32 (FcR+) cells. Anti-CD3/28 beads (3 beads:1 cell) or 100 Gy irradiated, anti-CD3 (OKT3) loaded KT64/86 cells (1 KT cell:2 CD4^+25^− T cells) are added on day 0. Cell density is maintained at 0.2-2×10^6/ml by 50% vol/vol re-feeds. By 10 days, diluent cultured cells expanded about 30-fold, decibine about 11 fold and low tryp/KYN about 5-fold; CD4+CD127loFoxP3hi cells were 1%, 16%, and 13%, respectively (FIG. 4; upper, FoxP3hi; lower box, FoxP3int,lo). […] In studies using umbilical cord blood (UCB) nTregs, day 11 cultures re-stimulated with KT cells expanded an additional 20-fold compared to no re-stimulation.
(§5) The next set of experiments were designed to compare the effects of a HDACi in a bead- or cell-based artificial antigen-presenting cell system (KT32) for generating iTregs (FIGS. 5B and 5C). Purified human naïve T cells (CD4^+, CD25^−, CD45RA^+) were stimulated with KT32 (K562 engineered to express human CD32) loaded with anti-CD3 and CD28 antibodies. The cells were cultured for 3 days and SAHA added a single time at the indicated concentrations, and analyzed 7 days later (day 10) for Foxp3 expression (FIG. 5B). Purified human naïve T cells (CD4^+, CD25^−, CD45RA^+) were stimulated with KT32 (K562 engineered to express human CD32) loaded with anti-CD3 and CD28 antibodies. The cells were cultured for 3 days and Trichostatin A added a single time at the indicated concentrations, and analyzed 7 days later (day 10) for Foxp3 expression.
The next set of experiments were designed to compare the effects of the combination of an HDACi with a demethylating agent in a bead- and cell-based antigen-presenting cell system (FIG. 5F). Purified human naïve T cells (CD4^+, CD25^−, CD45RA^+) were stimulated with clinical grade anti-CD3/28 beads or with KT32 (K562 engineered to express human CD32) loaded with anti-CD3 and CD28 antibodies. On day 3 of culture, the specified HDACi were added. On day 7, a single dose of Decitibine (1 μM) was added and cultures analyzed 3 days later (day 10) for Foxp3 expression.

CD4+25−45RA+ T cells [2] = experiment: Expansion of CD4+25−45RA+ T cells in bead- or cell-based artificial APC cultures; set-up: species or system human
Description: as §3, §4
as §5, with “Purified human naïve T cells (CD4^+, CD25^−, CD45RA^+) were stimulated with KT32 (K562 engineered to express human CD32) loaded with anti-CD3 and CD28 antibodies.” left out
The next set of experiments were designed to compare the effects of a demethylating agent in a bead- or cell-based artificial antigen-presenting cell system (KT32) for generating iTregs (FIGS. 5D and 5E). […] The cells were cultured for 3 days and Decitibine added a single time at the indicated concentrations, and analyzed 7 days later (day 10) for Foxp3 expression (FIG. 5D). […] The cells were cultured for 3 days and 5-Azacytidine added a single time at the indicated concentrations, and analyzed 7 days later (day 10) for Foxp3 expression (FIG. 5E).
The next set of experiments were designed to compare the effects of the combination of an HDACi with a demethylating agent in a bead- and cell-based antigen-presenting cell system (FIG. 5F). […] On day 7, a single dose of Decitibine (1 μM) was added and cultures analyzed 3 days later (day 10) for Foxp3 expression.

CD8+ T cell = experiment: iTreg suppression of CD8+ T cell proliferation by CFSE dye-dilution; type: cell-based, human; details: 1:16 ratio
Description: as §4
In vitro potency of expanded iTregs vs nTregs may be assayed for suppression in MLR and anti-CD3 mAb driven, CD8+ CFSE T cell proliferation assays.

PBMNCs = experiment: Suppression by expanded Tregs (ratios of Tregs to PBMNCs); type: cell-based, human; details: TGFβ 10 ng/ml added to the cells
Text: as §2

## Cn1cc(C[C@H](N)C(=O)O)c2ccccc21 [1MT, 1-methyl-tryptophan]
CD4+25− T cells
  iTreg conversion: prevented iTreg conversion

## Nc1ccccc1C(=O)CC(N)C(=O)O (stereo not shown) [KYN, kynurenine]
naïve MLR culture
  MLR suppression / suppressive iTregs: potent MLR suppression; also recorded: potently suppressive iTregs

## CO[C@H]1C[C@@H]2CC[C@@H](C)[C@@](O)(O2)C(=O)C(=O)N2CCCC[C@H]2C(=O)O[C@H]([C@H](C)C[C@@H]2CC[C@@H](O)[C@H](OC)C2)CC(=O)[C@H](C)/C=C(\C)[C@@H](O)[C@@H](OC)C(=O)[C@H](C)C[C@H](C)/C=C/C=C/C=C/1C [rapa, rapamycin]
CD4+25+ Tregs; Rapa added to KT64/86 driven cultures
  reduction of mean expansion: 10 fold
CD4+25+ Tregs; rapa added, anti-CD3/28 beads
  reduction of mean expansion rates: 30 fold
CD4+25+ Tregs; rapa added, anti-CD3/28 beads, day 14
  mean expansion rates by day 14: ≤ 10 fold

## Nc1ncn([C@H]2C[C@H](O)[C@@H](CO)O2)c(=O)n1 [decitibine, 5-aza-2′-deoxycitidine]
CD4+25−45RA+ cells; Decitibine 5 μM and Rapamycin 109 nM at day 7, re-stimulation on day 7
  percentage of Foxp3++ cells: significantly increased
CD4+25−45RA+ cells
  Foxp3 expression: some Foxp3 expression
CD4+25−45RA+ T cells [1]; by 10 days, KT32 cultures, decitibine 1-5 μM day 3 or low tryp+KYN
  CD4+CD127loFoxP3hi cells: 16%
CD4+25−45RA+ T cells [2]; anti-CD3/28 mAb-loaded KT32 cells, decitibine 1-5 μM day 3, KYN 10 μM + trypt 1 μM until day 7 then 5 μM
  expansion by 10 days: about 11 fold
CD8+ T cell
  iTreg suppression of CD8+ T cell proliferation: 41%

## transforming growth factor-beta [TGFβ]
CD4+25−45RA+ cells
  Foxp3 expression: synergizes with Decitibine to induce Foxp3 expression
PBMNCs
  suppression: did not increase suppression

## O=C(CCCCCCC(=O)Nc1ccccc1)NO [SAHA, suberoylanilide hydroxamic acid]
CD4+25−45RA+ T cells [1]
  iTreg generation / induction of CD4+127loFoxP3hi cells by day 10: did not result in iTregs; also recorded: No iTreg generation
CD4+25−45RA+ T cells [2]; SAHA 300 nM on day 3
  T cell expansion: did not inhibit T cell expansion
CD4+25−45RA+ T cells [2]; SAHA 100 μM on day 0
  toxicity in T cell culture: toxic

## CC(/C=C/C(=O)NO)=C\[C@@H](C)C(=O)c1ccc(N(C)C)cc1 [TSA, trichostatin A]
CD4+25−45RA+ T cells [1]; bead expanded cultures, day 10, diluent 1.7
  CD4+127loFoxP3hi: 1.6%
CD4+25−45RA+ T cells [1]; bead expanded cultures, day 10, diluent 21.8%
  FoxP3int/lo: 15.4%
CD4+25−45RA+ T cells [1]
  iTreg generation / induction of CD4+127loFoxP3hi cells by day 10: No iTreg generation
CD4+25−45RA+ T cells [2]; cell-based cultures, HDACi day 3, decitibine day 7, diluent 20-fold
  Day 10 expansions: 15 fold
